# Test results taken from US20080292576A1, “METHOD FOR IDENTIFYING HAIR CONDITIONER-RESISTANT HAIR-BINDING PEPTIDES AND HAIR BENEFIT AGENTS THEREFROM” (E.I. du Pont de Nemours and Co., priority 2005, published 2008).
# Where no end group is shown, it is not given here. 5‑FAM = 5-carboxyfluorescein-aminohexyl amidite fluorescent tag
# Tests used:
# [1] = ELISA determination of specificity, binding to hair; parameters: species or system human; details: for Hair A450 ± SEM: ELISA, 20 μM fluorescein-labeled peptide in binding buffer, 30 min at 37° C., absorbance at 450 nm; for binding to hair (in words): ELISA of Table 2
# From the text: (§1) The hair-binding peptides HCP.1 (SEQ ID NO:1) and HCP.6 (SEQ ID NO:4) were used in this Example along with a control peptide, an unrelated skin-binding peptide, Skin 1 (Huang et al., U.S. Patent Application Publication No. 2005/0050656), given as SEQ ID NO:8. All of the peptides were synthesized with an added lysine residue, derivatized with the fluorescent tag 5-carboxyfluorescein-aminohexyl amidite (5-FAM), at the C-terminus by SynPep (Dublin, Calif.). The sequences of the derivatized hair binding peptides HCP.1(5-FAM) and HCP.6(5-FAM) are given as SEQ ID NOs:9 and 10, respectively. The sequence of the derivatized skin-binding peptide control Skin 1(5-FAM) is given as SEQ ID NO:11.
# (§2) For the assay, a unique hair or pig skin-bottom 96-well apparatus was created by applying one layer of Parafilm® under the top 96-well block of a Minifold I Dot-Blot System (Schleicher & Schuell, Inc., Keene, N.H.), adding hair or a layer of hairless pig skin on top of the Parafilm® cover, and then tightening the apparatus. The hair or skin sample in the 96-well apparatus was first blocked with SuperBlock® Blocking Buffer (Tris-buffered; Pierce Biotechnology, Rockford, Ill.) by incubating the sample for 1 h at room temperature. Then, the hair or skin sample was washed six times with wash buffer (TBST-0.5%). The fluorescein-labeled peptide, at a concentration of 20 μM in 1.0 mL of binding buffer (TBST-0.5% containing 1 mg/mL BSA), was added to each well and incubated for 30 min at 37° C. The hair or skin sample was washed six times with TBST-0.5%, and then, 1.0 mL of anti-fluorescein/Mouse IgG (Molecular Probes, Inc., Eugene, Oreg.) solution (1:1000 dilution in blocking buffer) was added per well. The samples were incubated for 1 h at room temperature and then washed six times with wash buffer. Then, 1.0 mL of Anti-Mouse IgG-HRP conjugate (Pierce Biotechnology) solution (1:1000 dilution in blocking buffer) was added to each well and the samples were incubated for 1 h at room temperature. The samples were washed six times with wash buffer, and 300 μL of TMB Substrate (Pierce Biotechnology) was added to each well. The samples were incubated for 10 min at room temperature and then a 100 μL sample from each well was taken and added to a well in a new microtiter plate. Then, 100 μL of Stop solution (2 M sulfuric acid solution) was added to each well and the absorbance of each sample was measured at a wavelength of 450 nm.
# [2] = ELISA determination of specificity, binding to pig skin; details: for Skin A450 ± SEM: ELISA, 20 μM fluorescein-labeled peptide in binding buffer, 30 min at 37° C., pig skin, absorbance at 450 nm; for binding to skin (in words): ELISA of Table 2, pig skin
# From the text: as §1, §2
# [3] = ELISA binding to hair bundles from a hair conditioner matrix or buffer; parameters: species or system human; details: for difference in hair-binding activity from a hair conditioner matrix compared to buffer: ELISA of Table 3; for Buffer A450 ± SEM / 100% Conditioner A450 ± SEM: hair bundles, 30 min at 37° C.; for Buffer A450 ± SEM: 20 μM peptide in buffer; for 100% Conditioner A450 ± SEM: 20 μM peptide in undiluted Dove Extra Volume Conditioner
# Method: The same ELISA method described in Example 4 was used, except that the hair samples were assembled into bundles, instead of being cast as wells in a 96-well apparatus. To prepare the hair sample bundles, 100 pieces of 1 cm-long hairs were assembled together and taped at one end with narrow tape (3 M, St. Paul, Minn.). The hair was prepared as described in Examples 1-3 and placed into a flat-bottom block (Qiagen Science, Germantown, Md.; Cat. No. 19579).
# The HCP.1(5-FAM) and HCP.6(5-FAM) hair-binding peptides, as described in Example 4, were mixed separately with undiluted hair conditioner (Dove® Extra Volume Conditioner; Unilever) using a high-shear mixer (Silverson, Model L4R7A; Silverson Machines, East Longmeadow, Mass.) for 6 min to give a final peptide concentration of 20 μM. The hair samples were blocked as described in Example 4 and then incubated in the peptide-conditioner mixtures for 30 min at 37° C. The hair samples were then washed and treated as described in Example 4. After the final wash step after the addition of the Anti-Mouse IgG-HRP conjugate, the hair bundles were transferred to new tubes and the TMB substrate was added. The hair bundles were incubated for 10 min at room temperature, and then a 100 μL sample from each tube was taken and added to a well in a microtiter plate. Then, 100 μL of Stop solution (2 M sulfuric acid solution) was added to each well and the absorbance of each sample was measured at a wavelength of 450 nm.
# The binding of the HCP.1(5-FAM) and HCP.6(5-FAM) hair-binding peptides to hair from buffer was determined using the same procedure. In addition, controls were run using the same procedure, without any hair-binding peptide present, in both hair conditioner and buffer.
# [4] = Shampoo resistance of hair binding (ELISA after 30% shampoo wash); parameters: species or system human; details: wash with 30% shampoo (Pantene Pro-V, Sheer Volume)
# Method: Experiments were also done to determine if the hair conditioner-resistant hair-binding peptides were also shampoo resistant. For these experiments, the hair, after contacting with the hair-binding peptide (HCP.1 or HCP.6), was washed with a solution containing 30% shampoo (Pantene Pro-V, Sheer Volume, Proctor & Gamble, Cincinnati, Ohio) and the binding activity was determined using the ELISA method described above and compared to that obtained with buffer washes.
# [5] = Stability of hair-binding activity in a hair conditioner matrix (ELISA over time); parameters: species or system human; details: 21 days in hair conditioner matrix, room temperature; FIGS. 1 and 2
# Method: Separate mixtures of the hair-binding peptides HCP.1 and HCP.6 in hair conditioner were prepared as described in Example 5. For purposes of comparison, solutions of the hair-binding peptides in buffer were used. All the solutions were stored at room temperature and the binding activity of the peptides was determined using the ELISA procedure described in Example 5 using samples taken at different periods of time.
Substance,Hair A450 ± SEM [1],Skin A450 ± SEM [2],difference in hair-binding activity from a hair conditioner matrix compared to buffer [3],binding activity after shampoo wash compared to buffer washes [4],binding to hair (in words) [1],binding to skin (in words) [2],Buffer A450 ± SEM [3],100% Conditioner A450 ± SEM [3],hair-binding activity after storage in the hair conditioner matrix [5]
HCP.1(5-FAM): HCP.1 with an added C-terminal lysine derivatized with fluorescent tag 5-carboxyfluorescein-aminohexyl amidite (THSTHNHGSPRHTNADAGNPK(5‑FAM)),0.392 ± 0.065,0.090 ± 0.136,–,–,–,–,1.593 ± 0.060,1.581 ± 0.046,–
HCP.6(5-FAM): HCP.6 with an added C-terminal lysine derivatized with fluorescent tag 5-carboxyfluorescein-aminohexyl amidite (STLHKYKSQDPTPHHK(5‑FAM)),0.581 ± 0.053,−0.009 ± 0.023,–,–,–,–,1.420 ± 0.062,1.217 ± 0.075,–
THSTHNHGSPRHTNADAGNP (Hair conditioner-resistant hair-binding peptide) [HCP.1],–,–,no significant difference,almost total loss of binding activity,bind to hair,not to skin,–,–,no significant decrease

# Second part, led by results:
Hair A450 ± SEM [1],Skin A450 ± SEM [2],difference in hair-binding activity from a hair conditioner matrix compared to buffer [3],binding activity after shampoo wash compared to buffer washes [4],binding to hair (in words) [1],binding to skin (in words) [2],Buffer A450 ± SEM [3],100% Conditioner A450 ± SEM [3],Substance,hair-binding activity after storage in the hair conditioner matrix [5]
−0.001 ± 0.041,0.328 ± 0.146,–,–,–,–,–,–,Skin 1(5-FAM): skin-binding control peptide Skin 1 with added C-terminal lysine derivatized with 5-FAM (TPFHSPENAPGSK(5‑FAM)) [reference compound],–
–,–,no significant difference,almost total loss of binding activity,bind to hair,not to skin,–,–,STLHKYKSQDPTPHH (Hair conditioner-resistant hair-binding peptide) [HCP.6],no significant decrease
–,–,–,–,low hair-binding activity,high skin-binding activity,–,–,"Skin 1: control peptide, an unrelated skin-binding peptide (Huang et al., US 2005/0050656) (TPFHSPENAPGS; Skin-binding peptide) [reference compound]",–
